# From the supplement of paper PMC10307832
# Columns and labels:
# Assay in all cases: relative viability (nuclei count vs DMSO), 5 days (fraction); higher = more cells survive
# AT9283 + Linsitinib = compound: O=C(Nc1c[nH]nc1-c1nc2ccc(CN3CCOCC3)cc2[nH]1)NC1CC1 [AT9283] + C[C@]1(O)C[C@@H](c2nc(-c3ccc4ccc(-c5ccccc5)nc4c3)c3c(N)nccn32)C1 [Linsitinib] (partner 1 µM)
# How it was run: (§1)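 Lung cancer cell lines were seeded in 1536-well plates and dosed by pin tool the next day, with either a single drug or a fixed anchor-drug dose combined with five library-drug doses (not always all listed) spaced in √10 steps. Five days later, one step fixed the cells and stained their nuclei (final 0.05% Triton X-100, 1% formaldehyde, 1 ug/ml Hoechst), and nuclei were counted on 4× images. Relative viability is the nuclei count in treated wells divided by the count in vehicle wells, and each value is the median of duplicate plates.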
# AT9283 + Dasatinib = compound: O=C(Nc1c[nH]nc1-c1nc2ccc(CN3CCOCC3)cc2[nH]1)NC1CC1 [AT9283] + Cc1nc(Nc2ncc(C(=O)Nc3c(C)cccc3Cl)s2)cc(N2CCN(CCO)CC2)n1 [Dasatinib] (partner 0.075 µM)
# How it was run: as §1
# Erlotinib + Alpelisib = compound: C#Cc1cccc(Nc2ncnc3cc(OCCOC)c(OCCOC)cc23)c1 [Erlotinib] + Cc1nc(NC(=O)N2CCC[C@H]2C(N)=O)sc1-c1ccnc(C(C)(C)C(F)(F)F)c1 [Alpelisib] (partner 2 µM)
# How it was run: as §1
# AT9283 + Bortezomib = compound: O=C(Nc1c[nH]nc1-c1nc2ccc(CN3CCOCC3)cc2[nH]1)NC1CC1 [AT9283] + CC(C)C[C@H](NC(=O)[C@H](Cc1ccccc1)NC(=O)c1cnccn1)B(O)O [Bortezomib] (partner 0.002 µM)
# How it was run: as §1
# Erlotinib + OSI-027 = compound: C#Cc1cccc(Nc2ncnc3cc(OCCOC)c(OCCOC)cc23)c1 [Erlotinib] + COc1cccc2cc(-c3nc([C@H]4CC[C@H](C(=O)O)CC4)n4ncnc(N)c34)[nH]c12 [OSI-027] (partner 0.5 µM)
# How it was run: as §1
Cell Line,relative viability (AT9283 + Linsitinib; first compound 0.003 µM),relative viability (AT9283 + Linsitinib; first compound 0.03 µM),relative viability (AT9283 + Linsitinib; first compound 0.09487 µM),relative viability (AT9283 + Linsitinib; first compound 0.3 µM),relative viability (AT9283 + Dasatinib; first compound 0.003 µM),relative viability (AT9283 + Dasatinib; first compound 0.03 µM),relative viability (AT9283 + Dasatinib; first compound 0.09487 µM),relative viability (AT9283 + Dasatinib; first compound 0.3 µM),relative viability (Erlotinib + Alpelisib; first compound 0.02 µM),relative viability (Erlotinib + Alpelisib; first compound 0.2 µM),relative viability (Erlotinib + Alpelisib; first compound 0.6325 µM),relative viability (AT9283 + Bortezomib; first compound 0.003 µM),relative viability (AT9283 + Bortezomib; first compound 0.03 µM),relative viability (AT9283 + Bortezomib; first compound 0.09487 µM),relative viability (AT9283 + Bortezomib; first compound 0.3 µM),relative viability (Erlotinib + OSI-027; first compound 0.02 µM),relative viability (Erlotinib + OSI-027; first compound 0.2 µM),relative viability (Erlotinib + OSI-027; first compound 0.6325 µM),relative viability (Erlotinib + OSI-027; first compound 2 µM),relative viability (Erlotinib + Alpelisib; first compound 2 µM)
201T,1.02,1.02,0.8,0.409,0.456,0.592,0.323,0.292,0.999,0.968,0.966,1.02,1.14,1.09,0.487,0.804,0.862,0.846,0.664,
A549,0.539,0.311,0.0598,0.0613,,,,,0.709,0.68,0.728,,,,,,,,,0.595
A-427,0.834,1.03,0.276,0.205,0.698,0.402,0.124,0.131,1,1.04,1.12,0.977,0.427,0.216,0.188,0.449,0.537,0.468,0.482,1.05
ABC-1,0.722,0.211,0.182,0.182,0.498,0.178,0.196,0.207,1.09,1.2,1.01,1.05,0.261,0.117,0.283,0.582,0.386,0.361,0.346,0.92
BEN,0.718,0.894,0.2,0.227,0.256,0.369,0.311,0.14,1.08,1.01,1.26,0.688,0.739,0.242,0.27,0.334,0.301,0.317,0.304,
CAL-12T,0.905,0.286,0.22,0.202,0.495,0.204,0.124,0.12,1.16,0.859,0.56,0.89,0.896,0.547,0.212,0.672,0.47,0.219,0.26,0.371
COR-L23,0.867,0.152,0.0945,0.135,0.503,0.207,0.0898,0.101,0.84,0.719,0.836,1.05,0.664,0.23,0.152,0.87,0.879,0.721,0.512,0.553
COR-L 105,0.854,0.333,0.221,0.288,0.327,0.181,0.197,0.185,1.09,0.659,0.477,0.758,0.303,0.352,0.249,0.595,0.262,0.365,0.27,0.243
Calu-6,0.859,0.286,0.222,0.197,,,,,0.983,1.06,1.04,0.956,0.297,0.272,0.254,,,,,0.909
ChaGo-K-1,,,,,0.547,0.504,0.225,0.257,,,,0.889,0.908,0.356,0.303,0.695,0.55,0.549,0.434,
EBC-1,0.997,0.354,0.214,0.111,,,,,0.792,0.772,0.757,0.526,0.239,0.172,0.169,,,,,0.792
EKVX,0.966,0.79,0.434,0.204,0.501,0.413,0.241,0.195,0.835,0.403,0.315,0.996,0.652,0.636,0.351,0.679,0.506,0.34,0.187,0.116
EMC-BAC-2,0.85,0.634,0.205,0.226,0.273,0.245,0.131,0.142,0.762,0.649,0.685,1.04,0.792,0.216,0.204,0.394,0.416,0.353,0.302,0.542
EPLC-272H,1.26,1.25,0.973,0.183,0.342,0.307,0.106,0.103,1.01,0.979,0.818,0.786,0.831,0.802,0.122,0.342,0.304,0.26,0.196,0.679
H3255,0.877,0.91,0.298,0.132,0.323,0.316,0.331,0.235,0.674,0.34,0.16,0.632,0.719,0.542,0.172,0.638,0.345,0.207,0.202,0.13
HARA,0.428,0.879,0.0968,0.0955,0.27,0.235,0.0621,0.0732,0.946,0.619,0.646,0.795,1.05,0.172,0.158,0.575,0.492,0.44,0.217,0.256
HCC-15,0.831,0.424,0.155,0.146,0.587,0.221,0.112,0.112,0.897,0.844,0.913,1.05,0.773,0.696,0.166,0.702,0.736,0.676,0.588,0.77
